In patent US7402593B2 (priority 2004, dated 2008):

Assays:
[1] = compared with other PPIs such as omeprazole or lansoprazole; cited from earlier work
in vivo = conditions: dog, plasma, po, 50 mg/kg

## COc1ccc2[nH]c([S+]([O-])Cc3ncc(C)c(OC)c3C)nc2n1 (racemic) [racemic tenatoprazole, 5-methoxy-2-[ [(4-methoxy-3,5-dimethyl-2-pyridyl)methyl]sulfinyl]imidazo[4,5-b]pyridine]
[1]
  half-life in plasma relative to other PPIs: approximately seven times longer
Solubility in water; water
  solubility: < 1000 µg/mL
In vivo
  AUC(0-t): 156 µg·h/mL
  Cmax: 50.2 ng/mL
  Tmax: 1.5 h

## COc1ccc2nc([S+]([O-])Cc3ncc(C)c(OC)c3C)[n-]c2n1.[Na+] (racemic) [sodium salt of racemic tenatoprazole]
Solubility in water; room temperature
  highest concentration of solution obtainable: ≤ 19 g/L
